The values below come from patent publication US9944603B2, “Compounds and methods for the treatment of cystic fibrosis” (Flatley Discovery Lab, LLC, priority 2013, dated 2018).

This assay has as its target T1, human F508del CFTR (Homo sapiens, UniProt P13569, DEL508-508).
T1 construct: expressed in transfected cells
The experiment in a line: CFTR-YFP Assay, CFTR Corrector Protocol (YFP flux assay). The assay is classed as cell-based. To be noted: for Emax: normalized to the positive control, read-out: EMAX (% Efficacy, EMAX normalized to the positive control).

Structures are written as SMILES.

T1 sequence (P13569 with tags, fused parts or gaps DEL508-508): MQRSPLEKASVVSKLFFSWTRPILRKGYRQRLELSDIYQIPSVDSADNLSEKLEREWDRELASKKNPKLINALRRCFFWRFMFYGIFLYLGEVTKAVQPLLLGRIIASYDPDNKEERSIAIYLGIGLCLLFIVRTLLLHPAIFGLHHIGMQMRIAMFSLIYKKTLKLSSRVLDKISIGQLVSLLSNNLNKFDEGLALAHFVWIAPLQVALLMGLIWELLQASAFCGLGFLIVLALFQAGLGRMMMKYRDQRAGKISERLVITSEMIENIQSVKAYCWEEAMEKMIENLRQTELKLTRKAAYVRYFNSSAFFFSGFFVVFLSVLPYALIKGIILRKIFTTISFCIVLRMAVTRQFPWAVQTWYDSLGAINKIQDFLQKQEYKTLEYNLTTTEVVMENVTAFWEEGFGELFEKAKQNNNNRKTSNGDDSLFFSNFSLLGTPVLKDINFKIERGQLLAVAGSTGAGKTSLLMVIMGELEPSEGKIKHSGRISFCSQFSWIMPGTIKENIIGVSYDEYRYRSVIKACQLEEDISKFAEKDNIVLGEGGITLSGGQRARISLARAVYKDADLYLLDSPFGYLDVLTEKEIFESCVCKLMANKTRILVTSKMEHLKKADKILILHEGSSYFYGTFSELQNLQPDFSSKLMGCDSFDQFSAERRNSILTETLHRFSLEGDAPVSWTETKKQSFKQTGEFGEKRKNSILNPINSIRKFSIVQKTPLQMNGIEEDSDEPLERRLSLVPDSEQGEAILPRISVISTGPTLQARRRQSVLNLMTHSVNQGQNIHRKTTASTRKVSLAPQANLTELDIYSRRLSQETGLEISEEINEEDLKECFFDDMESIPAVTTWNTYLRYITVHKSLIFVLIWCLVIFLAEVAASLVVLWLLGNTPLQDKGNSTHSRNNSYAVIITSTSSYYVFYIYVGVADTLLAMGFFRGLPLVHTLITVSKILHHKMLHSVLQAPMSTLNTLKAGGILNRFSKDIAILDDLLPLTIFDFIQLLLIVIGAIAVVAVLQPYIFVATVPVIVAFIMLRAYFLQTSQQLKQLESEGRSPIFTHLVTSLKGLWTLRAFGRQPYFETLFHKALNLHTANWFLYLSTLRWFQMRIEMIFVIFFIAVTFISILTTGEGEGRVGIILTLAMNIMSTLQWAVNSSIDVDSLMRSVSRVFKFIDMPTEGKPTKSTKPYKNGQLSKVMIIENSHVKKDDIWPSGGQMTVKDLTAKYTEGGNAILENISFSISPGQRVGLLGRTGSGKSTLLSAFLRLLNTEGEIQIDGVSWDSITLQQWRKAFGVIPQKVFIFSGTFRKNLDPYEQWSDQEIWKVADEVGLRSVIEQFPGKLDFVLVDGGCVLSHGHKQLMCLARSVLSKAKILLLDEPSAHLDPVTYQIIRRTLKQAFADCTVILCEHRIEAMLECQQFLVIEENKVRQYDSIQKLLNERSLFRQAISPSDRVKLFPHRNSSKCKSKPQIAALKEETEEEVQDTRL

With `Cc1ccc2nc(-c3ccncn3)n(C3CCN(S(=O)(=O)c4ccc5c(c4)OC(F)(F)O5)CC3)c2n1` [Example 114], the EC50 was below 10 µM and the Emax lay within 30 to 80%.
As for `CCc1ccc(S(=O)(=O)N2CCC(n3c(-c4ccncn4)nc4ccc(C)nc43)CC2)cc1` [Example 115], the EC50 is below 10 µM and the Emax lay within 30 to 80%.
Taken in the same sequence, the figures for `O=S(=O)(c1ccc2c(c1)OC(F)(F)O2)N1CCC(n2c(-c3ccncc3F)nc3ncccc32)CC1` [Example 116] were below 10 µM and above 80%.
For `O=S(=O)(c1ccc2c(c1)CCO2)N1CCC(n2c(-c3ccncc3F)nc3cccnc32)CC1` [Example 117], in that order: below 10 µM and 30 to 80%.
Regarding `COc1ccc2nc(-c3ccncc3Cl)n(C3CCN(S(=O)(=O)c4ccc5c(c4)OC(F)(F)O5)CC3)c2n1` [Example 118], the EC50 is below 10 µM and the maximal effect (Emax) was 30 to 80%.
In the case of `O=S(=O)(c1ccc2c(c1)OC(F)(F)O2)N1CCC(n2c(-c3cccnc3F)nc3cccnc32)CC1` [Example 119], the EC50 was below 10 µM and the maximum response (Emax) is above 80%.
As to `CCc1ccc(S(=O)(=O)N2CCC(n3c(-c4cccnc4F)nc4cccnc43)CC2)cc1` [Example 120], the EC50 is below 10 µM and the maximal effect (Emax) was above 80%.
Consider `O=S(=O)(c1ccc2c(c1)CCO2)N1CCC(n2c(-c3ccc(F)cc3F)nc3cccnc32)CC1` [Example 121], for which the concentration for a half-maximal effect (EC50) is below 10 µM and the maximal effect (Emax) was 30 to 80%.
In the case of `O=S(=O)(c1ccc2c(c1)CCC2)N1CCC(n2c(-c3ccc(F)cc3F)nc3cccnc32)CC1` [Example 122], the EC50 is below 10 µM and the maximum response (Emax) is above 80%.
Taken in the same sequence, the figures for `O=S(=O)(c1ccc2c(c1)OCO2)N1CCC(n2c(-c3cccnc3F)nc3cccnc32)CC1` [Example 123] were below 10 µM and 10 to 30%.
For `O=S(=O)(c1ccc2c(c1)OC(F)(F)O2)N1CCC(n2c(-c3ccccc3OC(F)(F)F)nc3cccnc32)CC1` [Example 124], in that order: below 10 µM and 30 to 80%.
For `O=S(=O)(c1ccc2c(c1)OC(F)(F)O2)N1CCC(n2c(-c3ccc(F)cc3C(F)(F)F)nc3cccnc32)CC1` [Example 125], in that order: below 10 µM and 30 to 80%.
Turning to `O=S(=O)(c1ccc2c(c1)OC(F)(F)O2)N1CCC(n2c(-c3ccccc3OC(F)F)nc3cccnc32)CC1` [Example 126], the EC50 is below 10 µM and the Emax was 30 to 80%.
For `COc1ccc2nc(-c3ccncc3F)n(C3CCN(S(=O)(=O)c4ccc5c(c4)OC(F)(F)O5)CC3)c2n1` [Example 127], in that order: below 10 µM and 30 to 80%.
Regarding `O=S(=O)(c1ccc2c(c1)OC(F)(F)O2)N1CCC(n2c(-c3ccncn3)nc3cccnc32)CC1` [Example 128], the EC50 is below 10 µM and the Emax was 10 to 30%.
As to `O=S(=O)(c1ccc(OC(F)F)cc1)N1CCC(n2c(-c3ccncc3F)nc3nccnc32)CC1` [Example 129], the EC50 was below 10 µM and the maximal response (Emax) lay in the range of 10 to 30%.
In the case of `O=S(=O)(c1ccc2c(c1)OC(F)(F)O2)N1CCC(n2c(-c3ccccc3F)nc3cccnc32)CC1` [Example 130], the EC50 was below 10 µM and the maximum response (Emax) is 30 to 80%.
`CCc1ccc(S(=O)(=O)N2CCC(n3c(-c4ccncn4)nc4cccnc43)CC2)cc1` [Example 131]: the 50% effective concentration (EC50) is below 10 µM and the maximum response (Emax) is 10 to 30%.
For `Cc1nc2ccc(S(=O)(=O)N3CCC(n4c(-c5ccncc5F)nc5cccnc54)CC3)cc2s1` [Example 132], in that order: below 10 µM and 30 to 80%.
Take `Cc1nc2ccc(S(=O)(=O)N3CCC(n4c(-c5ccncc5F)nc5cccnc54)CC3)cc2o1` [Example 133]: the concentration for a half-maximal effect (EC50) was below 10 µM and the Emax was above 80%.
Taken in the same sequence, the figures for `Cc1nc2ccc(S(=O)(=O)N3CCC(n4c(-c5ccc(F)cc5F)nc5cccnc54)CC3)cc2o1` [Example 134] were below 10 µM and 30 to 80%.
In the case of `[2H]C1([2H])Oc2ccc(S(=O)(=O)N3CCC(n4c(-c5cccnc5Cl)nc5cccnc54)CC3)cc2O1` [Example 135], the EC50 was 10 to 20 µM and the maximum response (Emax) fell in the range of 10 to 30%.
For `[2H]C1([2H])Oc2ccc(S(=O)(=O)N3CCC(n4c(-c5ccncc5F)nc5cccnc54)CC3)cc2O1` [Example 136], in that order: below 10 µM and 10 to 30%.
In the case of `O=S(=O)(c1ccc2c(c1)OC(F)(F)O2)N1CCC(n2c(-c3ccncc3Cl)nc3cnccc32)CC1` [Example 137], the EC50 lay within 10 to 20 µM and the Emax lay within 10 to 30%.
Taken in the same sequence, the figures for `CCc1ccc(S(=O)(=O)N2CCC(n3c(-c4ccncc4F)nc4ccc(OC)nc43)CC2)cc1` [Example 138] were above 20 µM and 30 to 80%.
For `Cc1noc2ccc(S(=O)(=O)N3CCC(n4c(-c5ccncc5F)nc5cccnc54)CC3)cc12` [Example 139], in that order: above 20 µM and 10 to 30%.
Take `Cc1noc2ccc(S(=O)(=O)N3CCC(n4c(-c5ccc(F)cc5F)nc5cccnc54)CC3)cc12` [Example 140]: the EC50 is above 20 µM and the maximal effect (Emax) fell in the range of 10 to 30%.
For `Cc1n[nH]c2ccc(S(=O)(=O)N3CCC(n4c(-c5ccncc5F)nc5cccnc54)CC3)cc12` [Example 141], the EC50 is below 10 µM and the maximum response (Emax) was in the range of 10 to 30%.
For `Cc1cc2cc(S(=O)(=O)N3CCC(n4c(-c5ccncc5F)nc5cccnc54)CC3)ccc2[nH]1` [Example 142], in that order: below 10 µM and 10 to 30%.
Taken in the same sequence, the figures for `Cc1cc2cc(S(=O)(=O)N3CCC(n4c(-c5ccc(F)cc5F)nc5cccnc54)CC3)ccc2[nH]1` [Example 143] were below 10 µM and 10 to 30%.
For `Cc1n[nH]c2ccc(S(=O)(=O)N3CCC(n4c(-c5ccc(F)cc5F)nc5cccnc54)CC3)cc12` [Example 144], the EC50 is below 10 µM and the Emax was in the range of 10 to 30%.
Consider `CC(=O)N1c2ccc(S(=O)(=O)N3CCC(n4c(-c5ccncc5F)nc5cccnc54)CC3)cc2CC1C` (centres unmarked) [Example 145], for which the concentration for a half-maximal effect (EC50) is below 10 µM and the Emax fell in the range of 10 to 30%.
For `CC(=O)N1c2ccc(S(=O)(=O)N3CCC(n4c(-c5ccc(F)cc5F)nc5cccnc54)CC3)cc2CC1C` (centres unmarked) [Example 146], in that order: below 10 µM and 10 to 30%.
For `Cc1cc2cc(S(=O)(=O)N3CCC(n4c(-c5ccncn5)nc5cccnc54)CC3)ccc2[nH]1` [Example 147], in that order: below 10 µM and 10 to 30%.
`CC1Cc2cc(S(=O)(=O)N3CCC(n4c(-c5ccncc5F)nc5cccnc54)CC3)ccc2N1` (centres unmarked) [Example 148]: the EC50 was below 10 µM and the maximum response (Emax) lay in the range of 10 to 30%.
Taken in the same sequence, the figures for `CC1Cc2cc(S(=O)(=O)N3CCC(n4c(-c5ccc(F)cc5F)nc5cccnc54)CC3)ccc2N1` (centres unmarked) [Example 149] were below 10 µM and 10 to 30%.
For `COc1ccc2c(c1)nc(-c1ccncc1F)n2C1CCN(S(=O)(=O)c2ccc3c(c2)OC(F)(F)O3)CC1` [Example 150], in that order: 10 to 20 µM and 30 to 80%.
Take `CCc1ccc(S(=O)(=O)N2CCC(n3c(-c4ccncc4F)nc4cc(OC)ccc43)CC2)cc1` [Example 151]: the EC50 was below 10 µM and the Emax lay in the range of 30 to 80%.
Taken in the same sequence, the figures for `CC(=O)N1c2ccc(S(=O)(=O)N3CCC(n4c(-c5ccncn5)nc5cccnc54)CC3)cc2CC1C` (centres unmarked) [Example 152] were 10 to 20 µM and 10 to 30%.
For `COc1ccc2c(c1)nc(-c1ccccc1Cl)n2C1CCN(S(=O)(=O)c2ccc3c(c2)OC(F)(F)O3)CC1` [Example 153], in that order: below 10 µM and 30 to 80%.
Turning to `COc1ccc2c(c1)nc(-c1ccncc1Cl)n2C1CCN(S(=O)(=O)c2ccc3c(c2)OC(F)(F)O3)CC1` [Example 154], the EC50 was below 10 µM and the Emax lay in the range of 30 to 80%.
For `CCc1ccc(S(=O)(=O)N2CCC(n3c(-c4ccccc4Cl)nc4cc(OC)ccc43)CC2)cc1` [Example 155], in that order: below 10 µM and 30 to 80%.
Regarding `CCc1ccc(S(=O)(=O)N2CCC(n3c(-c4ccncc4Cl)nc4cc(OC)ccc43)CC2)cc1` [Example 156], the concentration giving a half-maximal response (EC50) is below 10 µM and the maximal effect (Emax) was 30 to 80%.
In the case of `O=S(=O)(c1ccc2snc(Cl)c2c1)N1CCC(n2c(-c3ccncc3Cl)nc3cccnc32)CC1` [Example 157], the EC50 was below 10 µM and the Emax lay within 10 to 30%.
Taken in the same sequence, the figures for `O=S(=O)(c1ccc2snc(Cl)c2c1)N1CCC(n2c(-c3ccncc3F)nc3cccnc32)CC1` [Example 158] were 10 to 20 µM and 10 to 30%.
With `O=S(=O)(c1ccc2snc(Cl)c2c1)N1CCC(n2c(-c3ccc(F)cc3F)nc3cccnc32)CC1` [Example 159], the 50% effective concentration (EC50) was below 10 µM and the maximal effect (Emax) lay within 10 to 30%.
Taken in the same sequence, the figures for `COc1ccc2c(c1)nc(-c1ccncc1Cl)n2C1CCN(S(=O)(=O)c2ccc3nc(C)oc3c2)CC1` [Example 160] were below 10 µM and 30 to 80%.
For `O=S(=O)(c1ccc2cc[nH]c2c1)N1CCC(n2c(-c3ccncc3Cl)nc3cccnc32)CC1` [Example 161], in that order: 10 to 20 µM and 10 to 30%.
For the compound `O=S(=O)(c1ccc2cc[nH]c2c1)N1CCC(n2c(-c3ccncc3F)nc3cccnc32)CC1` [Example 162], the half-maximal effective concentration (EC50) is below 10 µM and the Emax was 10 to 30%.
With `COc1ccc2c(c1)nc(-c1ccncc1F)n2C1CCN(S(=O)(=O)c2ccc3nc(C)oc3c2)CC1` [Example 163], the EC50 is below 10 µM and the Emax was above 80%.
Taken in the same sequence, the figures for `COc1ccc2c(c1)nc(-c1ccc(F)cc1F)n2C1CCN(S(=O)(=O)c2ccc3nc(C)oc3c2)CC1` [Example 164] were below 10 µM and above 80%.
Taken in the same sequence, the figures for `Cc1ccnc2c1nc(-c1ccncc1F)n2C1CCN(S(=O)(=O)c2ccc3c(c2)OC(F)(F)O3)CC1` [Example 165] were below 10 µM and 30 to 80%.
